# In patent publication US10005773B2, “1-(4-pyrimidinyl)-1H-pyrrolo[3,2-c]pyridine derivatives as NIK inhibitors” (Janssen Pharmaceutica NV, priority 2013, dated 2018):
# pEC50, pIC50: −log10 of the molar value.
# Key:
# [1] = target: T1, Recombinant Human NF-kappaB-Inducing Kinase (NIK/MAP3K14) (Homo sapiens, UniProt Q99558); assay: Biological Assay A: inhibition of recombinant human NIK/MAP3K14 activity (MSD, MBP substrate); conditions: 25 μM ATP, 10 nM NIK/MAP3K14, 1 h at 25° C.; averaged over all batches; read-out: Biochemical (MSD MBP) IC50
# Description: Inhibition of Recombinant Human NF-kappaB-Inducing Kinase (NIKIMAP3K14) Activity
# Assay buffer was 50 mM Tris pH 7.5 containing 1 mM ethylene glycol tetraacetic acid (EGTA), 1 mM dithiothreitol (DTT), 0.1 mM Na3VO4, 5 mM MgCl2, 0.01% Tween® 20. Assays were carried out in 384 well Mesoscale high binding plates which had been coated with myelin basic protein (MBP) and blocked with bovine serum albumin to prevent non-specific protein binding. All compounds tested were dissolved in dimethyl sulfoxide (DMSO) and further dilutions were made in assay buffer. Final DMSO concentration was 1% (v/v) in assays. Incubations consisted of compound (1% DMSO in control and blank wells), 25 μM Adenosine-5′-triphosphate (ATP), and 10 nM NIK/MAP3K14 substituting enzyme with buffer in the blank wells. Incubations were carried out for 1 h at 25° C. and were followed by washing and sequential incubation with rabbit anti-phospho-MBP and anti-rabbit Ig Sulfotag antibody before reading bound Sulfotag on a Mesoscale Discovery. Signal obtained in the wells containing blank samples was subtracted from all other wells and IC50's were determined by fitting a sigmoidal curve to % inhibition of control versus Log10 compound concentration.
# [2] = target: T1, Recombinant Human NF-kappaB-Inducing Kinase (NIK/MAP3K14); assay: Biological Assay A2: inhibition of auto-phosphorylation of recombinant human NIK/MAP3K14 (AlphaScreen); assay type: biochemical; conditions: 25 microM ATP, 0.2 nM NIK/MAP3K14, 1 h at 25° C., averaged over all batches, read-out: Alpha-Screen IC50
# Description: Inhibition of Auto-Phosphorylation of Recombinant Human NF-kappaB-Inducing Kinase (NIKIMAP3K14) Activity (AlphaScreen®)
# NIK/MAP3K14 auto-phosphorylation activity was measured using the AlphaScreen® (ascreen) format (Perkin Elmer). All compounds tested were dissolved in dimethyl sulfoxide (DMSO) and further dilutions were made in assay buffer. Final DMSO concentration was 1% (v/v) in assays. Assay buffer was 50 mM Tris pH 7.5 containing 1 mM EGTA (ethylene glycol tetraacetic acid), 1 mM DTT (dithiothreitol), 0.1 mM Na3VO4, 5 mM MgCl2, 0.01% Tween® 20. Assays were carried out in 384 well Alphaplates (Perkin Elmer). Incubations consisted of compound, 25 microM Adenosine-5′-triphosphate (ATP), and 0.2 nM NIK/MAP3K14. Incubations were initiated by addition of GST-tagged NIK/MAP3K14 enzyme, carried out for 1 h at 25° C. and terminated by addition of stop buffer containing anti-phospho-IKK Ser176/180 antibody. Protein A Acceptor and Glutathione-Donor beads were added before reading using an EnVision® Multilabel Plate Reader (Perkin Elmer). Signal obtained in the wells containing blank samples was subtracted from all other wells and IC50's were determined by fitting a sigmoidal curve to % inhibition of control versus Log10 compound concentration.
# [3] = tested on: P-IKKα levels in L363 cells; assay: Biological Assay B: effect of compounds on P-IKKα levels in L363 cells; assay type: cell-based; conditions: Homo sapiens, L-363, BAFF stimulated, 2 hr treatment, averaged over all batches, read-out: IKKα Cellular IC50
# Description: Effect of Compounds on P-IKKα Levels in L363 Cells
# All compounds tested were dissolved in DMSO and further dilutions were made in culture medium. Final DMSO concentration was 1% (v/v) in cell assays. The human L363 cells (ATCC) were cultured in RPMI 1640 medium supplemented with GlutaMax and 10% fetal calf serum (PAA). Cells were routinely maintained at densities of 0.2×10^6 cells per ml-1×10^6 cells per ml at 37° C. in a humidified 5% CO2 atmosphere. Cells were passaged twice a week splitting back to obtain the low density. Cells were seeded in 96 well plates (Nunc 167008) at 2×10^6 per ml media in a volume of 75 μl per well plus 25 μl 1 μg/ml recombinant human B-cell activating factor (BAFF/BLyS/TNFSF13B). Seeded cells were incubated at 37° C. in a humidified 5% CO2 atmosphere for 24 hr. Drugs and/or solvents were added (20 μl) to a final volume of 120 μl. Following 2 hr treatment plates were removed from the incubator and cell lysis was achieved by the addition of 30 μl 5× lysis buffer followed by shaking on a plate shaker at 4° C. for 10 min. At the end of this incubation lysed cells were centrifuged at 800×g for 20 min at 4° C. and the lysate was assessed for P-IKKα levels by sandwich immuno-assay carried out in anti-rabbit antibody coated Mesoscale plates. Within an experiment, the results for each treatment were the mean of 2 replicate wells. For initial screening purposes, compounds were tested using an 8 point dilution curve (serial 1:3 dilutions). For each experiment, controls (containing MG132 and BAFF but no test drug) and a blank incubation (containing MG132 and BAFF and 10 μM ADS125117, a test concentration known to give full inhibition) were run in parallel. The blank incubation value was subtracted from all control and sample values. To determine the IC50 a sigmoidal curve was fitted to the plot of % inhibition of control P-IKKα levels versus Log10 compound concentration.
# JJN-3 cells = assay: Biological Assay C: antiproliferative activity on JJN-3 cells (CellTiter-Glo); assay type: cell-based; conditions: Homo sapiens, 72 hr treatment
# Description: (§1) Determination of Antiproliferative Activity on LP-1, L-363 and JJN-3 Cells
# (§2) All compounds tested were dissolved in DMSO and further dilutions were made in culture medium. Final DMSO concentration was 0.3% (v/v) in cell proliferation assays. Viability was assessed using CellTiter-Glo cell viability assay kit (Promega). The human LP-1, L-363 and JJN-3 cells (DSMZ) were cultured in RPMI 1640 medium supplemented with 2 mM L-glutamine, and 10% fetal calf serum (PAA). Cells were routinely kept as suspension cells at 37° C. in a humidified 5% CO2 atmosphere. Cells were passaged at a seeding density of 0.2×10^6/ml twice a week. Cells were seeded in black tissue culture treated 96-well plates (Perkin Elmer). Densities used for plating ranged from 2,000 to 6,000 cells per well in a total volume of 75 μl medium. After twenty four hours, drugs and/or solvents were added (25 μl) to a final volume of 100 μl. Following 72 hr of treatment plates were removed from the incubator and allowed to equilibrate to room temperature for approx 10 min. 100 μl CellTiter-Glo reagent was added to each well that was then covered (Perkin Elmer Topseal) and shaken on plate shaker for 10 min. Luminescence was measured on a HTS Topcount (Perkin Elmer). Within an experiment, the results for each treatment were the mean of 2 replicate wells. For initial screening purposes, compounds were tested using a 9 point dilution curve (serial 1:3 dilutions). For each experiment, controls (containing no drug) and a blank incubation (containing cells read at the time of compound addition) were run in parallel. The blank value was subtracted from all control and sample values. For each sample, the mean value for cell growth (in relative light units) was expressed as a percentage of the mean value for cell growth of the control.
# L-363 cells = assay: Biological Assay C: antiproliferative activity on L-363 cells (CellTiter-Glo); assay type: cell-based; conditions: Homo sapiens, 72 hr treatment
# Description: as §1, §2
# LP-1 cells = assay: Biological Assay C: antiproliferative activity on LP-1 cells (CellTiter-Glo); assay type: cell-based; conditions: Homo sapiens, 72 hr treatment
# Description: as §1, §2
# T1 sequence (Q99558 whole entry): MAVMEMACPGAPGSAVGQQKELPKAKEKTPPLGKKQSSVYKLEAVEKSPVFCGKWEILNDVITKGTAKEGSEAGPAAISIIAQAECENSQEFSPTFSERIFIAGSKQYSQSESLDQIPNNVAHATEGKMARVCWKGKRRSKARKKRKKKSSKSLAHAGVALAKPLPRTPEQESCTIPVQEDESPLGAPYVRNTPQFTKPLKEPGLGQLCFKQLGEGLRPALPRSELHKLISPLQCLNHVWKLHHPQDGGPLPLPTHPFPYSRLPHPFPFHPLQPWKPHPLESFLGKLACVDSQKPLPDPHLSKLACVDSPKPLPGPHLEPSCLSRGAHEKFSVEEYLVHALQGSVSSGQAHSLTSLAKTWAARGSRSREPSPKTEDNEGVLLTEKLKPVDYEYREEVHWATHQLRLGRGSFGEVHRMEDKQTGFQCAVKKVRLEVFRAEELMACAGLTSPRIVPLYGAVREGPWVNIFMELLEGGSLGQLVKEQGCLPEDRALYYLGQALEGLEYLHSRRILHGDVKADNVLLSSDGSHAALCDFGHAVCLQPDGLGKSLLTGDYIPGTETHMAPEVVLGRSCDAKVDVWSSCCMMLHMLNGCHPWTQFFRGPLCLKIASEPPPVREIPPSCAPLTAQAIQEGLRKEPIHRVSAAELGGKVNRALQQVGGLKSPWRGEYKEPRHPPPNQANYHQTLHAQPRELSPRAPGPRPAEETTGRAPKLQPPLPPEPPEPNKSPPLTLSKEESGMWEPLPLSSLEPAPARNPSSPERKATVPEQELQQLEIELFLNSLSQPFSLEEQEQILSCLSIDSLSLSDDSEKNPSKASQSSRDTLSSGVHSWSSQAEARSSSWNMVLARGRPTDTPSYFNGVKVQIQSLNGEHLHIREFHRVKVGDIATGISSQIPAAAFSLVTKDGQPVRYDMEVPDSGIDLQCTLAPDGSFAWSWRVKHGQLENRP
pIC50 [1],pIC50 [2],pIC50 [3],SMILES,pEC50 (JJN-3 cells),pEC50 (L-363 cells),pEC50 (LP-1 cells)
8.29,7.74,7.05,CC(O)(C#Cc1cc2c(ccn2-c2nc(N)ncc2Cl)cn1)c1nccs1 (stereo not drawn) [Compound 10],5.92,4.89,4.55
7.60,7.92,7.74,CC(C)(O)C#Cc1cc2c(cn1)c(CCC#N)cn2-c1ccnc(N)n1 [Compound 36],6.70,6.44,5.34
7.43,7.23,5.88,CNC(=O)c1cn(-c2ccnc(N)n2)c2cc(C#CC(C)(C)O)ncc12 [Compound 15],5.48,5.14,< 4.52
6.94,6.63,6.48,Cc1cnc(N)nc1-n1ccc2cnc(C#CC(C)(C)O)cc21 [Compound 11],5.57,5.42,5.23
7.74,8.11,7.36,Nc1ncc(F)c(-n2ccc3cnc(C#CC4(O)CCCC4)cc32)n1 [Compound 13],6.06,5.37,5.49
6.99,7.02,7.12,CN1CCC(c2cn(-c3nc(N)ncc3F)c3cc(C#CC(C)(C)O)ncc23)CC1 [Compound 25],6.89,6.98,5.98
7.40,7.43,6.74,CN1CCC(c2cn(-c3ccnc(N)n3)c3cc(C#CC4(O)CCCC4)ncc23)CC1 [Compound 24],6.11,6.29,5.37
7.96,7.82,8.02,CCc1cn(-c2ccnc(N)n2)c2cc(C#CC(C)(C)O)ncc12 [Compound 21],7.39,7.36,7.15
7.09,6.59,6.70,CCCCOCc1cn(-c2ccnc(N)n2)c2cc(C#CC(C)(C)O)ncc12 [Compound 17],6.48,6.33,6.34
8.42,7.80,6.79,CC(C)(O)C#Cc1cc2c(ccn2-c2nc(N)ncc2Cl)cn1 [Compound 7],5.98,6.01,5.72
7.55,6.73,5.91,CC(C)(O)C#Cc1cc2c(cn1)c(C(N)=O)cn2-c1ccnc(N)n1 [Compound 14],4.97,4.90,< 4.52
8.55,7.96,7.00,Nc1ncc(Cl)c(-n2ccc3cnc(C#CC4(O)CCCC4)cc32)n1 [Compound 9],5.74,4.81,4.43
7.11,7.89,7.60,CC(C)(O)C#Cc1cc2c(ccn2-c2nc(N)ncc2F)cn1 [Compound 12],6.88,6.88,6.55
7.89,7.59,7.26,CC(C)(O)C#Cc1cc2c(cn1)c(CC#N)cn2-c1ccnc(N)n1 [Compound 20],6.72,6.50,5.89
8.29,7.54,6.92,N#CCCc1cn(-c2ccnc(N)n2)c2cc(C#CC3(O)CCCC3)ncc12 [Compound 37],6.06,5.88,5.29
7.89,7.85,7.10,CC(C)(O)C#Cc1cc2c(cn1)c(CCC(C)(C)O)cn2-c1ccnc(N)n1 [Compound 31],6.45,6.01,5.15
8.42,7.96,7.39,CC(C)(O)C#Cc1cc2c(cn1)c(CCO)cn2-c1ccnc(N)n1 [Compound 26],6.74,6.08,5.16
7.26,7.10,6.69,CNc1nccc(-n2ccc3cnc(C#CC(C)(C)O)cc32)n1 [Compound 6],6.13,6.11,6.03
7.92,7.62,6.98,Nc1ncc(Cl)c(-n2ccc3cnc(C#CC4(O)CC4)cc32)n1 [Compound 8],5.80,5.81,5.63
7.66,7.70,7.25,COCc1cn(-c2ccnc(N)n2)c2cc(C#CC(C)(C)O)ncc12 [Compound 18],6.50,6.61,5.88
7.05,7.31,6.79,CC(C)(O)C#Cc1cc2c(cn1)c(/C=C/C#N)cn2-c1ccnc(N)n1 [Compound 35],6.38,6.02,5.69
8.62,8.00,7.74,CC(O)(C#Cc1cc2c(ccn2-c2ccnc(N)n2)cn1)c1nccs1 (stereo not drawn) [Compound 5],6.63,5.53,5.48
7.28,7.60,6.59,CC(C)(O)C#Cc1cc2c(cn1)c(CCC(C)(C)O)cn2-c1nc(N)ncc1F [Compound 33],5.76,6.04,5.27
